Patent publication US5238689A, “Use of ruthenium red as immunosuppressive agents” (Procept, Inc., priority 1992, dated 1993)
Values joined by “and” are separate entries in the source; they are usually repeats but may differ in a detail not shown here. Equal values may be shown once. Read-outs that look alike come from different tables or passages of the source.

Columns and labels:
[1] = tested on: transfected Jurkat T cells; test: Calcium influx into activated human T cells (Fluo-3AM); assay type: cell-based
Procedure: To uncover the mode of action of Ruthenium Red, additional experiments were performed. Because it is known that this compound effects Ca^2+ levels in cells, we examined whether Ruthenium Red prevents the rise in intracellular Ca^2+ that accompanies T cell activation. The Ca^2+ -sensitive dye, Fluo-3AM (Molecular Probes, Inc., Eugene, Oreg.), can be used to detect intracellular Ca^2+. For these studies, transfected Jurkat T cells were incubated with Fluo-3AM (1 μM) for one hour at room temperature. The cells were then washed three times and incubated in 1 ml. volumes (5×10^5 cells) with various agents to trigger T cell activation and thus Ca^2+ uptake. Ruthenium Red was added at a concentration of 1 μg/ml (1.27 μM).

[2] = tested on: T cell responses to cytochrome c
Procedure: For these studies, B10.A mice were treated with Ruthenium RED as before and immunized with cytochrome c. On day 7 after challenge with antigen, draining lymph nodes were removed and single cell suspensions of lymphocytes were prepared. The lymphocytes were counted to estimate overall yields and were cultured in vitro with antigen (100 μg/ml) for three days prior to addition of tritiated thymidine to quantitate proliferation.

[3] = tested on: T cells activated with HSV-1; conditions: 1 μg/ml
Procedure: In another study, T cells were activated with HSV-1 as described before and the Ruthenium Red (1 μg/ml) was added either at the start of culture (time 0) or after various delays.

[4] = tested on: human peripheral blood lymphocytes (PBL's); conditions: for 3H-thymidine uptake / % Inhibition: Ruthenium Red 0.2 μg/ml, 3 days
Procedure: For these studies, human peripheral blood lymphocytes (PBL's) were incubated in vitro with varying concentrations of IL-2 and in the presence or absence of Ruthenium Red (0.2 μg/ml). After 3 days of culture, ^3 H-thymidine was added for 16 hr, cells were harvested, and the filters counted.

[5] = tested on: specific antibodies to cytochrome c; conditions: 4 mg/kg i.p. daily, 2 days before and 12 days after immunization; day 23
[6] = tested on: smooth muscle plasma membrane of pig stomach cells; conditions: cited from earlier work
[7] = tested on: T cells; conditions: mean of 4 determinations
Procedure: Alloreactivity was measured by stimulating T cells from one donor with inactivated lymphocytes from a second donor. The inhibition values represent the means of 4 separate determinations.

[8] = tested on: human T cell (PBL) proliferation; conditions: for % Inhibition: mean of 5 separate experiments
[9] = tested on: specific antibody to cytochrome c
Procedure: The remaining mice in this study continued on their assigned treatment and were bled on day 23, as in the original pilot study, and sera were tested for specific antibodies in the ELISA. The data has been expressed as the mean of the endpoint dilution.

[10] = tested on: Lewis lung carcinoma; conditions: mice treated with the dye; cited from earlier work
[11] = tested on: mitochondria of rat liver cells; conditions: cited from earlier work

For `CNc1ccc2oc(C[C@H]3O[C@@]4(CC[C@H]3C)O[C@H]([C@H](C)C(=O)c3ccc[nH]3)[C@H](C)C[C@H]4C)nc2c1C(=O)O` [Calcium ionophore, reference compound], the “% Fluorescent cells” value ([1]; Calcium ionophore, without Ruthenium Red) was 84.6%.
For `N.N.N.N.N.N.N.N.N.N.N.N.N.N.[Cl-].[Cl-].[Cl-].[Cl-].[Cl-].[Cl-].[O-2].[O-2].[Ru+3].[Ru+3].[Ru+4]` [Ruthenium Red], the “Cell Yield (draining lymph nodes)” value ([2]; mouse 14, day 7) was 0.26 × 10^6, the “Cell Yield (draining lymph nodes)” value ([2]; mouse 16, day 7) was 0.81 × 10^6 and the “Cell Yield (draining lymph nodes)” value ([2]; mouse 17, day 7) was 16 × 10^6. The Specific proliferation ([2]; mouse 17, day 7, antigen 100 μg/ml, three days in vitro) was 22,236 cpm, the “response to cytochrome c” value ([2]; third mouse) was “responded normally to cytochrome c” and the “enlargement of lymph nodes following immunization” value ([2]; two of the three mice) was “no enlargement of lymph nodes following immunization”. For the same compound, the “latest time of addition after triggering with antigen still producing maximal inhibition” value [3] was ≤ 20 h, the “% Inhibition” value ([3]; time of addition 0 hr) was 95% and the “% Inhibition” value ([3]; time of addition 1 hr) was 97%. For the same compound, the “% Inhibition” value ([3]; time of addition 2 hr) was 96%, the “% Inhibition” value ([3]; time of addition 4 hr) was 92% and the “% Inhibition” value ([3]; time of addition 20 hr) was 86%. For the same compound, the “% Inhibition” value ([3]; time of addition 33 hr) was 58%, the 3H-thymidine uptake ([4]; IL-2 0.01 U/ml) was 1,154 cpm and the “% Inhibition” value ([4]; IL-2 0.01 U/ml) was 80%. For the same compound, the 3H-thymidine uptake ([4]; IL-2 1 U/ml) was 2,805 cpm, the “% Inhibition” value ([4]; IL-2 1 U/ml) was 92% and the 3H-thymidine uptake ([4]; IL-2 100 U/ml) was 3,839 cpm. For the same compound, the “% Inhibition” value ([4]; IL-2 100 U/ml) was 88%, the “proliferative response induced by IL-2 alone” value ([4]; PBL's) was “can be inhibited by this compound” and the “reduction in antibody levels compared to control mice who received water” value [5] was 70%. The “Ca2+ efflux” value [6] was “inhibit Ca^2+ efflux”, the “effect on calcium ion transport” value ([6]; smooth muscle plasma membrane of pig stomach cells) was “affect calcium ion transport” and the “percentage of cells staining positively with the dye (intracellular Ca2+)” value ([1]; 1 μg/ml (1.27 μM)) was “major reduction in the percentage of cells staining positively with the dye”. For the same compound, the “% Fluorescent cells” value ([1]; Activation (anti-CD2), Ruthenium Red 1 μg/ml (1.27 μM)) was 17.2%, the “% Inhibition of alloreactivity” value ([7]; 0.1 μg/ml (0.13 μM)) was 69% and the “% Inhibition of alloreactivity” value ([7]; 0.2 μg/ml (0.25 μM)) was 77%. For the same compound, the “% Inhibition of alloreactivity” value ([7]; 1.0 μg/ml (1.27 μM)) was 85%, the “% Inhibition of alloreactivity” value ([7]; 2.5 μg/ml (3.18 μM)) was 92% and the “% Inhibition” value ([8]; 0.01 μg/ml (0.01 μM)) was 17%. The “% Inhibition” value ([8]; 0.1 μg/ml (0.13 μM)) was 31%, the “% Inhibition” value ([8]; 0.2 μg/ml (0.25 μM)) was 60% and the “% Inhibition” value ([8]; 1.0 μg/ml (1.27 μM)) was 89%. For the same compound, the “% Inhibition” value ([8]; 2.5 μg/ml (3.18 μM), 3.18 µM) was ~90% and 96%, the IC50 ([8]; read-out: IC50, inhibition of T cell proliferation, antigen-stimulated human PBL) was ~200 nM and the “High Responders” value ([9]; antibody titer greater than 1:5,120, day 23) was 2/6. For the same compound, the “mice with titers greater than 1:5000” value ([9]; day 23) was 2 of the 6, the “Mean Titer” value ([9]; mean of the endpoint dilution, day 23) was 18,613 ± 13,020 and the “fraction of mice with a greatly reduced response to antigen” value ([9]; pilot study, proliferative data and antibody titers together) was “two thirds”. The “anti-tumor properties, growth of Lewis lung carcinoma” value [10] was “growth inhibition of Lewis lung carcinoma in mice” and the “effect on calcium ion transport” value [11] was “affect calcium ion transport”.
